# According to patent publication US9221827B2, “Antimicrobial compounds and methods of making and using the same” (Melinta Therapeutics, Inc., priority 2011, dated 2015):
# System: Escherichia coli strain ATCC25922
# Assay: standard microdilution assay to determine minimum inhibitory concentrations (MICs)
# Type: cell-based
# Details: Escherichia coli strain ATCC25922, microdilution
# Procedure, shortened: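 Broth microdilution per CLSI (M7-A8/M100-S20), 100 μl final volume, with reference-strain quality control; MIC is the lowest inhibitory concentration. Scored "+"/"−" against a 16 micrograms/ml cutoff, "N/A" where unavailable.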
row,SMILES,E. coli ATCC25922 MIC
1,CC(NCCCNC(=N)N)c1ccc(-n2cc3cc(-c4cc(CCC5(CN)CC5)cc(Cl)c4F)[nH]c3nc2=O)cc1 (stereo not drawn) [Compound 272],+ (a “+” indicates that the compound has an MIC value of 16 micrograms/ml or less)
2,CC(N)CCCc1cc(-c2cc3cn(-c4ccc(C(C)NCCCNC(=N)N)cc4)c(=O)nc3[nH]2)c(F)c(C(F)(F)F)c1 (stereo not drawn) [Compound 274],+ (a “+” indicates that the compound has an MIC value of 16 micrograms/ml or less)
3,CC(N)CCCc1cc(-c2cc3cn(-c4ccc(CNCCCNC(=N)N)cc4)c(=O)nc3[nH]2)c(F)c(C(F)(F)F)c1 (stereo not drawn) [Compound 275],+ (a “+” indicates that the compound has an MIC value of 16 micrograms/ml or less)
4,CC(CCCc1cc(-c2cc3cn(-c4ccc(C(C)NCCCNC(=N)N)cc4)c(=O)nc3[nH]2)cc(C(F)(F)F)c1)NC(=N)N (stereo not drawn) [Compound 276],+ (a “+” indicates that the compound has an MIC value of 16 micrograms/ml or less)
5,CC(N)CCc1cc(Cl)c(F)c(-c2cc3cn(-c4ccc(CNCCCNC(=N)N)cc4)c(=O)nc3[nH]2)c1 (stereo not drawn) [Compound 278],+ (a “+” indicates that the compound has an MIC value of 16 micrograms/ml or less)
6,CC(CN)Cc1cc(-c2cc3cn(-c4ccc(CNCCCNC(=N)N)cc4)c(=O)nc3[nH]2)c(F)c(C(F)(F)F)c1 (stereo not drawn) [Compound 280],+ (a “+” indicates that the compound has an MIC value of 16 micrograms/ml or less)
7,CC(N)CCCc1cc(OC(F)(F)F)c(Cl)c(-c2cc3cn(-c4ccc(CNCCCNC(=N)N)cc4)c(=O)nc3[nH]2)c1 (stereo not drawn) [Compound 281],+ (a “+” indicates that the compound has an MIC value of 16 micrograms/ml or less)
8,CC(N)CCCc1cc(OC(F)(F)F)c(Cl)c(-c2cc3cn(-c4ccc(C(C)NCCCNC(=N)N)cc4)c(=O)nc3[nH]2)c1 (stereo not drawn) [Compound 282],+ (a “+” indicates that the compound has an MIC value of 16 micrograms/ml or less)
9,CCc1cc(CCCC(C)N)cc(-c2cc3cn(-c4ccc(CNCCCNC(=N)N)cc4)c(=O)nc3[nH]2)c1Cl (stereo not drawn) [Compound 283],+ (a “+” indicates that the compound has an MIC value of 16 micrograms/ml or less)
10,CCc1cc(CCCC(C)NC(=N)N)cc(-c2cc3cn(-c4ccc(CNCCCNC(=N)N)cc4)c(=O)nc3[nH]2)c1Cl (stereo not drawn) [Compound 284],+ (a “+” indicates that the compound has an MIC value of 16 micrograms/ml or less)
11,CCc1cc(CCCCNC(=N)N)cc(-c2cc3cn(-c4ccc(CNCCCNC(=N)N)cc4)c(=O)nc3[nH]2)c1Cl [Compound 285],+ (a “+” indicates that the compound has an MIC value of 16 micrograms/ml or less)
12,CC(N)CCCc1cc(OC(F)(F)F)c(F)c(-c2cc3cn(-c4ccc(CNCCCNC(=N)N)cc4)c(=O)nc3[nH]2)c1 (stereo not drawn) [Compound 286],+ (a “+” indicates that the compound has an MIC value of 16 micrograms/ml or less)
13,CNC(C)CCCc1cc(-c2cc3cn(-c4ccc(CNCCCNC(=N)N)cc4)c(=O)nc3[nH]2)cc(C(F)(F)F)c1 (stereo not drawn) [Compound 287],+ (a “+” indicates that the compound has an MIC value of 16 micrograms/ml or less)
14,CC(N)CCCc1cc(SC(F)(F)F)c(Cl)c(-c2cc3cn(-c4ccc(CNCCCNC(=N)N)cc4)c(=O)nc3[nH]2)c1 (stereo not drawn) [Compound 288],+ (a “+” indicates that the compound has an MIC value of 16 micrograms/ml or less)
15,CC(N)CCCc1cc(SC(F)(F)F)c(Cl)c(-c2cc3cn(-c4ccc(C(C)NCCCNC(=N)N)cc4)c(=O)nc3[nH]2)c1 (stereo not drawn) [Compound 289],+ (a “+” indicates that the compound has an MIC value of 16 micrograms/ml or less)
16,CNC(C)CCCc1cc(-c2cc3cn(-c4ccc(C(C)NCCCNC(=N)N)cc4)c(=O)nc3[nH]2)cc(C(F)(F)F)c1 (stereo not drawn) [Compound 290],+ (a “+” indicates that the compound has an MIC value of 16 micrograms/ml or less)
17,CNC(C)CCCc1cc(Cl)c(F)c(-c2cc3cn(-c4ccc(CNCCCNC(=N)N)cc4)c(=O)nc3[nH]2)c1 (stereo not drawn) [Compound 292],+ (a “+” indicates that the compound has an MIC value of 16 micrograms/ml or less)
18,N=C(N)NCCCNCc1ccc(-n2cc3cc(-c4cc(CCCCN)cc(C(F)(F)F)c4C(F)(F)F)[nH]c3nc2=O)cc1 [Compound 293],+ (a “+” indicates that the compound has an MIC value of 16 micrograms/ml or less)
19,CNC(C)CCCc1cc(SC(F)(F)F)cc(-c2cc3cn(-c4ccc(CNCCCNC(=N)N)cc4)c(=O)nc3[nH]2)c1 (stereo not drawn) [Compound 294],+ (a “+” indicates that the compound has an MIC value of 16 micrograms/ml or less)
20,CC(C)(N)CCCc1cc(Cl)c(F)c(-c2cc3cn(-c4ccc(CNCCCNC(=N)N)cc4)c(=O)nc3[nH]2)c1 [Compound 295],+ (a “+” indicates that the compound has an MIC value of 16 micrograms/ml or less)
21,C[C@H](NCCCNC(=N)N)c1ccc(-n2cc3cc(-c4cc(CCCC(C)(C)N)cc(Cl)c4F)[nH]c3nc2=O)cc1 [Compound 296],+ (a “+” indicates that the compound has an MIC value of 16 micrograms/ml or less)

row,SMILES,E. coli ATCC25922 MIC
1,CC(N)CCCc1cc(OC(F)F)c(F)c(-c2cc3cn(-c4ccc(CNCCCNC(=N)N)cc4)c(=O)nc3[nH]2)c1 (stereo not drawn) [Compound 297],+ (a “+” indicates that the compound has an MIC value of 16 micrograms/ml or less)
2,CC(CCCc1cc(Cl)c(F)c(-c2cc3cn(-c4ccc(CNCCCNC(=N)N)cc4)c(=O)nc3[nH]2)c1)N(C)C (stereo not drawn) [Compound 298],+ (a “+” indicates that the compound has an MIC value of 16 micrograms/ml or less)
3,CC(N)CCCc1cc(OC(F)F)c(F)c(-c2cc3cn(-c4ccc(C(C)NCCCNC(=N)N)cc4)c(=O)nc3[nH]2)c1 (stereo not drawn) [Compound 299],+ (a “+” indicates that the compound has an MIC value of 16 micrograms/ml or less)
4,CCc1cc(CCCC(C)N)cc(-c2cc3cn(-c4ccc(C(C)NCCCNC(=N)N)cc4)c(=O)nc3[nH]2)c1F (stereo not drawn) [Compound 300],+ (a “+” indicates that the compound has an MIC value of 16 micrograms/ml or less)
5,CCc1cc(CCCC(C)N)cc(-c2cc3cn(-c4ccc(CNCCCNC(=N)N)cc4)c(=O)nc3[nH]2)c1F (stereo not drawn) [Compound 301],+ (a “+” indicates that the compound has an MIC value of 16 micrograms/ml or less)
6,C[C@@H](CCCc1cc(SC(F)(F)F)cc(-c2cc3cn(-c4ccc(CNCCCNC(=N)N)cc4)c(=O)nc3[nH]2)c1)N(C)C [Compound 302],+ (a “+” indicates that the compound has an MIC value of 16 micrograms/ml or less)
7,CC(C)(N)CCCc1cc(SC(F)(F)F)cc(-c2cc3cn(-c4ccc(CNCCCNC(=N)N)cc4)c(=O)nc3[nH]2)c1 [Compound 303],+ (a “+” indicates that the compound has an MIC value of 16 micrograms/ml or less)
8,C[C@H](NCCCNC(=N)N)c1ccc(-n2cc3cc(-c4cc(CCCC(C)(C)N)cc(SC(F)(F)F)c4)[nH]c3nc2=O)cc1 [Compound 304],+ (a “+” indicates that the compound has an MIC value of 16 micrograms/ml or less)
9,C[C@H](N)CCCc1cc(SC(F)F)cc(-c2cc3cn(-c4ccc(CNCCCNC(=N)N)cc4)c(=O)nc3[nH]2)c1 [Compound 305],+ (a “+” indicates that the compound has an MIC value of 16 micrograms/ml or less)
10,C[C@H](N)CCCc1cc(CC(F)(F)F)cc(-c2cc3cn(-c4ccc(CNCCCNC(=N)N)cc4)c(=O)nc3[nH]2)c1 [Compound 306],+ (a “+” indicates that the compound has an MIC value of 16 micrograms/ml or less)
11,N=C(N)NCCCNCc1ccc(-n2cc3cc(-c4cc(CCC5(CN)CC5)cc(SC(F)(F)F)c4)[nH]c3nc2=O)cc1 [Compound 307],+ (a “+” indicates that the compound has an MIC value of 16 micrograms/ml or less)
12,C[C@H](N)CCCc1cc(SC(F)F)cc(-c2cc3cn(-c4ccc([C@H](C)NCCCNC(=N)N)cc4)c(=O)nc3[nH]2)c1 [Compound 308],+ (a “+” indicates that the compound has an MIC value of 16 micrograms/ml or less)
13,C[C@@H](CCCc1cc(-c2cc3cn(-c4ccc(CNCCCNC(=N)N)cc4)c(=O)nc3[nH]2)cc(C(F)(F)F)c1)N(C)C [Compound 309],+ (a “+” indicates that the compound has an MIC value of 16 micrograms/ml or less)
14,C[C@H](NCCCNC(=N)N)c1ccc(-n2cc3cc(-c4cc(CCC5(CN)CC5)cc(SC(F)(F)F)c4)[nH]c3nc2=O)cc1 [Compound 310],+ (a “+” indicates that the compound has an MIC value of 16 micrograms/ml or less)
15,C[C@H](N)COCc1cc(OC(F)(F)F)cc(-c2cc3cn(-c4ccc(CNCCCNC(=N)N)cc4)c(=O)nc3[nH]2)c1 [Compound 311],+ (a “+” indicates that the compound has an MIC value of 16 micrograms/ml or less)
16,C[C@H](N)C/C=C/c1cc(Cl)c(F)c(-c2cc3cn(-c4ccc(CNCCCNC(=N)N)cc4)c(=O)nc3[nH]2)c1 [Compound 312],+ (a “+” indicates that the compound has an MIC value of 16 micrograms/ml or less)
17,Cc1cc(CCC[C@H](C)N)cc(-c2cc3cn(-c4ccc(CNCCCNC(=N)N)cc4)c(=O)nc3[nH]2)c1Cl [Compound 313],+ (a “+” indicates that the compound has an MIC value of 16 micrograms/ml or less)
18,C[C@@H](CN)OCc1cc(-c2cc3cn(-c4ccc(CNCCCNC(=N)N)cc4)c(=O)nc3[nH]2)cc(C(F)(F)F)c1 [Compound 314],+ (a “+” indicates that the compound has an MIC value of 16 micrograms/ml or less)
19,C[C@H](NCCCNC(=N)N)c1ccc(-n2cc3cc(-c4cc(CO[C@@H](C)CN)cc(C(F)(F)F)c4)[nH]c3nc2=O)cc1 [Compound 315],+ (a “+” indicates that the compound has an MIC value of 16 micrograms/ml or less)
20,C[C@H](N)CCCc1cc(OC(F)(F)F)c(F)c(-c2cc3cn(-c4ccc([C@H](C)NCCCNC(=N)N)cc4)c(=O)nc3[nH]2)c1 [Compound 316],+ (a “+” indicates that the compound has an MIC value of 16 micrograms/ml or less)
21,CC(C)(N)CCCc1cc(-c2cc3cn(-c4ccc(CNCCCNC(=N)N)cc4)c(=O)nc3[nH]2)cc(C(F)(F)F)c1 [Compound 317],+ (a “+” indicates that the compound has an MIC value of 16 micrograms/ml or less)
